Experimental data from US20250025473A1 (priority 2021, published 2025).
Like-named read-outs stand apart in the source and are kept apart here.

What was measured:
[1] = system: phosphatidylserine (PtdS) and Akt; assay: Translocation of PtdS and Akt to the outer leaflet after HSV-2 (confocal, non-permeabilized); format: cell-based, human; conditions: 10 μM, HaCat, HSV-2(G)
VSV-G = format: cell-based
EGFR = EGFR (Homo sapiens, UniProt P00533); assay: HotSpot in vitro kinase assay, EGFR; conditions: read-out: Compound IC50, EGFR; in vitro kinase activity
HaCat cells = assay: Apoptosis assays (activated caspases, SYTOX Green, cleaved PARP-1/caspase 8)
Akt, PDPK1 = format: cell-based, monkey; conditions: 10 μM, Vero, VSV-S, 30 and 60 minutes
VSV-EBOV-GP = format: cell-based
Insulin Receptor = Insulin Receptor (Homo sapiens, UniProt P06213); assay: HotSpot in vitro kinase assay, Insulin Receptor
c-Src = c-Src (Homo sapiens, UniProt P12931); assay: HotSpot in vitro kinase assay, c-Src; conditions: read-out: Compound IC50, c-Src; in vitro kinase activity
HSV-1 K26GFP = assay: HSV capsid entry, GFP+ cells by confocal imaging; conditions: HaCat, CIMSS 10 μM, anti-Akt 2 μg/ml, cycloheximide 10 μg/ml
panel of 393 kinases [2] = target: T1, panel of 393 kinases (Homo sapiens, UniProt Q9BQI3); assay: biochemical; conditions: CIMSS 10 μM, 10 μM ATP
T1 construct: purchased Reaction Biology Corporation

panel of 393 kinases [3] = target: T2, panel of 393 kinases (Homo sapiens, UniProt Q96QT4); assay: biochemical; conditions: CIMSS 10 μM, 10 μM ATP
T2 construct: purchased Reaction Biology Corporation
T2 sequence (Q96QT4 whole entry): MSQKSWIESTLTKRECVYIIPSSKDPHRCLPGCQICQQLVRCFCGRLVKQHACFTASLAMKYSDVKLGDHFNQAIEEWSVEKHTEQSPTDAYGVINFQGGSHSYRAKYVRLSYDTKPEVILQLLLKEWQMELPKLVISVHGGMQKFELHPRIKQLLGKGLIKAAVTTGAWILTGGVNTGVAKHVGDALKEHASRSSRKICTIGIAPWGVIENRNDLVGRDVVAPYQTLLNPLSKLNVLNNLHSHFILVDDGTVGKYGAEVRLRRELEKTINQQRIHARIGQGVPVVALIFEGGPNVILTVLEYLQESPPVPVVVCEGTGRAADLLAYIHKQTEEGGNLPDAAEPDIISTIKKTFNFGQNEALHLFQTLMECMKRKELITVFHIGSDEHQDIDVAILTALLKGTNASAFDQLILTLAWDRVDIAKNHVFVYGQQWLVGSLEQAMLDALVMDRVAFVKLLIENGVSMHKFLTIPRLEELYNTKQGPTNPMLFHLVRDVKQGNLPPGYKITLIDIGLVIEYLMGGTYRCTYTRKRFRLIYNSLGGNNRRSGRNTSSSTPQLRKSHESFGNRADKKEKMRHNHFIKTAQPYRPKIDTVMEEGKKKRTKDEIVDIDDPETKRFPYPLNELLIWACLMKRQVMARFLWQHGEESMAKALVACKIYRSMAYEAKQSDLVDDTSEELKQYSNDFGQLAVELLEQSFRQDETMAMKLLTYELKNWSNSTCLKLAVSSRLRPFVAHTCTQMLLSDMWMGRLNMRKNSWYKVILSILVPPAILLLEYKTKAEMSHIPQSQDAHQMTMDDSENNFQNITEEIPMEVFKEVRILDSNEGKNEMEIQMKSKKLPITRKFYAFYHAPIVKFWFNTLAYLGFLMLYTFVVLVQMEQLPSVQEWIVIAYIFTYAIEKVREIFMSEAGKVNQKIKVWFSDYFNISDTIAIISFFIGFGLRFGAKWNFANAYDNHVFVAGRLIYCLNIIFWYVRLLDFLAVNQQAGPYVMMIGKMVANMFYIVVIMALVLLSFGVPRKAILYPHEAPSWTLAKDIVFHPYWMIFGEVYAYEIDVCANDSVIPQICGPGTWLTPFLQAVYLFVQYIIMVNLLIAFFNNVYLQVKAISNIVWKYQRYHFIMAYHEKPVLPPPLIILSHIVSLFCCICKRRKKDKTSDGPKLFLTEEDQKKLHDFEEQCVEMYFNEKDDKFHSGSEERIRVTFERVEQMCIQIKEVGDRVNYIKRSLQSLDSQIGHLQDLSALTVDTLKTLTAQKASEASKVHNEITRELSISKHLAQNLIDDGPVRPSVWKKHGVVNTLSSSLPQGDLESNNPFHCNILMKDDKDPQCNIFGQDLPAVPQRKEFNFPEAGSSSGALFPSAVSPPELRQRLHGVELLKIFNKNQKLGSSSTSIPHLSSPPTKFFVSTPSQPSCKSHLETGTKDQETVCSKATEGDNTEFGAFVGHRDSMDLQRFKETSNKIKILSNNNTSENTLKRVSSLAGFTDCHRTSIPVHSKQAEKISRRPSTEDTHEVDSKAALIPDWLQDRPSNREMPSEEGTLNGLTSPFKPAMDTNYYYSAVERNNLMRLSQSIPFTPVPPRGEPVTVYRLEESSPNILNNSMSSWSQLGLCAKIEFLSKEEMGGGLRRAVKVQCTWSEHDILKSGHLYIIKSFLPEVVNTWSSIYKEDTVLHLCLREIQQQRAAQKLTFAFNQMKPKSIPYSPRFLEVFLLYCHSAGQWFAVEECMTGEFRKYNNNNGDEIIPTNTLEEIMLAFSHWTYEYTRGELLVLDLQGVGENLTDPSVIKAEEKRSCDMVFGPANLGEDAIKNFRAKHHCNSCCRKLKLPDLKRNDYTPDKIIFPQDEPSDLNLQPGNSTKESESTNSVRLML

T1 sequence (Q9BQI3 whole entry): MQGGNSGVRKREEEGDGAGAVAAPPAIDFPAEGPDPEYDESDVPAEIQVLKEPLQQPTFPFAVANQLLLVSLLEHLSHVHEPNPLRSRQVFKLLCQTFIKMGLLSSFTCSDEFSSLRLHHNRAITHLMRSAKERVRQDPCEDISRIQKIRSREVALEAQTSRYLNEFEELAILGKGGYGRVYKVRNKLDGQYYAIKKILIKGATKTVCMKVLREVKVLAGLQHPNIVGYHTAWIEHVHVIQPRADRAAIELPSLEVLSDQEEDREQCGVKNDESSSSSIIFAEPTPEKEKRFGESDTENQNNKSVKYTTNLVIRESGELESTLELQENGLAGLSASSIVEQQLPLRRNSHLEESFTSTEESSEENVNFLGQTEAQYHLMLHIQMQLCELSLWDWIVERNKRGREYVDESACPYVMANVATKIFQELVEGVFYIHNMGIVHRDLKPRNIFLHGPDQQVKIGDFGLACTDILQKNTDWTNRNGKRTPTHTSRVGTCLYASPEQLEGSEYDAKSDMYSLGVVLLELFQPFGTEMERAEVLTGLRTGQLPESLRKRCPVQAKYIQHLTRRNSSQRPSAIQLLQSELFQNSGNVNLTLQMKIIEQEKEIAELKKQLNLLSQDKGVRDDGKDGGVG
Chain of Insulin Receptor (P06213 28-1382): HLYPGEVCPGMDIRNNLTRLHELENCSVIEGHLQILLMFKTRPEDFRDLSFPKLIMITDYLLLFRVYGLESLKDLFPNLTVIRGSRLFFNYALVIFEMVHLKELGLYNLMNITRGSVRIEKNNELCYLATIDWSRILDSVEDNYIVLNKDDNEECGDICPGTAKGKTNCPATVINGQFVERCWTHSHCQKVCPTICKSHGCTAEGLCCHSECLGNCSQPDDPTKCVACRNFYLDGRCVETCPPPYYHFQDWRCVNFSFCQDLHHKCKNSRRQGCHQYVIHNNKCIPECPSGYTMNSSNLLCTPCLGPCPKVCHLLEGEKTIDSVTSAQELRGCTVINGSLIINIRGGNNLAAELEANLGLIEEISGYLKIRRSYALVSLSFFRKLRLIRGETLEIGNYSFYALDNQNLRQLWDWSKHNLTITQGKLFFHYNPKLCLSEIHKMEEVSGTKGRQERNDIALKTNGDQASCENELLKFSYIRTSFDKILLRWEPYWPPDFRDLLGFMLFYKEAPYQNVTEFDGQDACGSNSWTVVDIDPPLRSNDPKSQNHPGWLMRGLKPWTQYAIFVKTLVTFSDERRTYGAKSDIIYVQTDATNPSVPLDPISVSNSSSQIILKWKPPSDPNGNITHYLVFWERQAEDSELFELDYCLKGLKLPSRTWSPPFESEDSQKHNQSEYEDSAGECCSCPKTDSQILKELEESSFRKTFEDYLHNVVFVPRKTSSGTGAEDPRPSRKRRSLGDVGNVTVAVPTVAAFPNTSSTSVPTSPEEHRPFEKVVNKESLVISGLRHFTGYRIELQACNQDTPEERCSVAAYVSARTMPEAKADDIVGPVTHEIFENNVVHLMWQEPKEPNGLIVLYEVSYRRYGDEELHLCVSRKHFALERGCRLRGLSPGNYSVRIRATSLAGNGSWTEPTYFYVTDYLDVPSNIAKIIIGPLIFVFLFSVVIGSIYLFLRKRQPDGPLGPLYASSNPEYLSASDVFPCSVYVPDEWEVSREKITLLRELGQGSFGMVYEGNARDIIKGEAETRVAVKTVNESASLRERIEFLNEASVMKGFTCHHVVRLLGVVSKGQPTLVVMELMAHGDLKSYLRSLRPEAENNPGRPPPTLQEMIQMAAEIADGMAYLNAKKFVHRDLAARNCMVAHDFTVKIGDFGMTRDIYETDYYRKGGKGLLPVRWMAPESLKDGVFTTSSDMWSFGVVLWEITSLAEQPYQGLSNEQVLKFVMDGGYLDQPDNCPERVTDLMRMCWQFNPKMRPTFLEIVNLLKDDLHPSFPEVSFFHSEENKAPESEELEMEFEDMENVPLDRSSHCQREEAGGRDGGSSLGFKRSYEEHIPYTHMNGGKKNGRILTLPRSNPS
Chain of EGFR (P00533 25-1210): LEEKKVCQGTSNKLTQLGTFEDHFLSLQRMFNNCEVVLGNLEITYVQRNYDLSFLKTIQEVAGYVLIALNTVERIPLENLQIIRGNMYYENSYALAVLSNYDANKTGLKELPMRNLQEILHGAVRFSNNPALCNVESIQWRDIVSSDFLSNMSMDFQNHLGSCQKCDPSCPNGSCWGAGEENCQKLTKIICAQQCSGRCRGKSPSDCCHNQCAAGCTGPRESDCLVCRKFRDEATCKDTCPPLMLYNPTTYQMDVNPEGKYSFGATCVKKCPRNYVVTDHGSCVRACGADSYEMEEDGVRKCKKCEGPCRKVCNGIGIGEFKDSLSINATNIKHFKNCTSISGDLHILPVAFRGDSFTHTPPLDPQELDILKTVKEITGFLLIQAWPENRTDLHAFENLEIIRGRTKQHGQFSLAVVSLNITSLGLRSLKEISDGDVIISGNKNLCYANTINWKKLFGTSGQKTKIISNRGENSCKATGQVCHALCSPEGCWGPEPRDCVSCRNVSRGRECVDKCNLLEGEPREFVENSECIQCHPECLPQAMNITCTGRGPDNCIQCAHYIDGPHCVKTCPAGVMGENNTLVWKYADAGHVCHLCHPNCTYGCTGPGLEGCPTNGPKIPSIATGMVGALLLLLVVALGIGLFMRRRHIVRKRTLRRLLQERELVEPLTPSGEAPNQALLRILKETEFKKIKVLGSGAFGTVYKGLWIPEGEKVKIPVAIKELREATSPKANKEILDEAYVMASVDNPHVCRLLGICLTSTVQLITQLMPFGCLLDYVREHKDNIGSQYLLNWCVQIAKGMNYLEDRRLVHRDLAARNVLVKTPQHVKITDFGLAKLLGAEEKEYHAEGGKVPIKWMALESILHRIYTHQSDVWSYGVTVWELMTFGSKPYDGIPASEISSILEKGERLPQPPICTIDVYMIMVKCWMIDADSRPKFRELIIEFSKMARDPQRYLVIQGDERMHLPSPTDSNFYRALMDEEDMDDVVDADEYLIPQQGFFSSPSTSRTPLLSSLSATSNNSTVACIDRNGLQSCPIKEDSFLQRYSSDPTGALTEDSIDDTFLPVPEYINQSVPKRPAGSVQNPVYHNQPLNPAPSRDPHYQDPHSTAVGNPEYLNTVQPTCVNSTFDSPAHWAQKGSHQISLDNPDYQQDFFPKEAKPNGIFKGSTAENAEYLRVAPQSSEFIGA

With `CO[C@@H]1[C@H](N(C)C(=O)CCC(=O)NCc2cn(CCCS(=O)(=O)[O-])nn2)C[C@H]2O[C@]1(C)n1c3ccccc3c3c4c(c5c6ccccc6n2c5c31)C(=O)NC4.[Na+]` [CIMSS] the “translocation of PtdS and Akt to the outer leaflet of the plasma membrane” value [1] was “did not block”, the “VSV-G infection, percentage of GFP+ cells” value (VSV-G) was “no effect” and the IC50 (EGFR) was 1610 nM. For the same compound, the “induction of apoptosis (SYTOX Green and anti-caspase staining)” value (HaCat cells; 10 μM, 6 or 24 hours) was “did not induce apoptosis”, the “PARP-1 or caspase 8 cleavage” value (HaCat cells; 0.1, 1 or 10 μM, 8 hours) was “did not induce PARP-1 or caspase 8 cleavage” and the “extracellular phosphorylation of Akt (biotinylation, pAktT308)” value (Akt, PDPK1) was “inhibited”. The “VSV-EBOV-GP infection, percentage of GFP+ cells” value (VSV-EBOV-GP) was “no effect”, the “fold less effective than staurosporine (IC50), insulin receptor” value (Insulin Receptor) was roughly 40 fold and the IC50 (Insulin Receptor; read-out: Compound IC50, Insulin Receptor, in vitro kinase activity) was 803 nM. For the same compound, the IC50 (c-Src) was 11.9 nM, the “percentage of GFP+ cells” value (HSV-1 K26GFP; 4 h post-temperature shift) was “significantly reduced” and the “percentage of GFP+ cells” value (HSV-1 K26GFP; one hour post temperature shift) was “significantly decreased”. For the same compound, the remaining activity at 10 µM (panel of 393 kinases [2]; read-out: % Enzyme Activity (relative to DMSO controls) CIMSS (10 μM) Data 1, kinase EIF2AK1, Data 1) was 82.5%, the remaining activity at 10 µM (panel of 393 kinases [2]; read-out: % Enzyme Activity (relative to DMSO controls) CIMSS (10 μM) Data 2, kinase EIF2AK1, Data 2) was 81.2% and the remaining activity at 10 µM (panel of 393 kinases [3]; read-out: % Enzyme Activity (relative to DMSO controls) CIMSS (10 μM) Data 1, kinase TRPM7/CHAK1, Data 1) was 91.6%. The remaining activity at 10 µM (panel of 393 kinases [3]; read-out: % Enzyme Activity (relative to DMSO controls) CIMSS (10 μM) Data 2, kinase TRPM7/CHAK1, Data 2) was 91.5%.
